Emax and DC50 data for 14 molecules are collected here from patent US20230002367A1, “BIFUNCTIONAL COMPOUNDS” (Hoffmann-La Roche Inc., priority 2019, published 2023).

In this experiment the target is T1, SMARCA2 (Homo sapiens, UniProt P51531).
T1 construct: endogenous in cells
The experiment in a line: SMARCA2 HiBiT degradation assay (cellular). It is filed as cell-based. The following applies: for Emax: A549, Emax = amount of residual protein remaining in the cell following compound treatment; for DC50: SMARCA2 HiBiT cells, luminescence readout, 11-point titration from 10 μM, 6 hours or 16 hours, read-out: HiBit A549 SMARCA2 IP. Background: With HiBiT, luminescence reflects the tagged protein that the partner subunit can reach.

T1 sequence (P51531 whole entry): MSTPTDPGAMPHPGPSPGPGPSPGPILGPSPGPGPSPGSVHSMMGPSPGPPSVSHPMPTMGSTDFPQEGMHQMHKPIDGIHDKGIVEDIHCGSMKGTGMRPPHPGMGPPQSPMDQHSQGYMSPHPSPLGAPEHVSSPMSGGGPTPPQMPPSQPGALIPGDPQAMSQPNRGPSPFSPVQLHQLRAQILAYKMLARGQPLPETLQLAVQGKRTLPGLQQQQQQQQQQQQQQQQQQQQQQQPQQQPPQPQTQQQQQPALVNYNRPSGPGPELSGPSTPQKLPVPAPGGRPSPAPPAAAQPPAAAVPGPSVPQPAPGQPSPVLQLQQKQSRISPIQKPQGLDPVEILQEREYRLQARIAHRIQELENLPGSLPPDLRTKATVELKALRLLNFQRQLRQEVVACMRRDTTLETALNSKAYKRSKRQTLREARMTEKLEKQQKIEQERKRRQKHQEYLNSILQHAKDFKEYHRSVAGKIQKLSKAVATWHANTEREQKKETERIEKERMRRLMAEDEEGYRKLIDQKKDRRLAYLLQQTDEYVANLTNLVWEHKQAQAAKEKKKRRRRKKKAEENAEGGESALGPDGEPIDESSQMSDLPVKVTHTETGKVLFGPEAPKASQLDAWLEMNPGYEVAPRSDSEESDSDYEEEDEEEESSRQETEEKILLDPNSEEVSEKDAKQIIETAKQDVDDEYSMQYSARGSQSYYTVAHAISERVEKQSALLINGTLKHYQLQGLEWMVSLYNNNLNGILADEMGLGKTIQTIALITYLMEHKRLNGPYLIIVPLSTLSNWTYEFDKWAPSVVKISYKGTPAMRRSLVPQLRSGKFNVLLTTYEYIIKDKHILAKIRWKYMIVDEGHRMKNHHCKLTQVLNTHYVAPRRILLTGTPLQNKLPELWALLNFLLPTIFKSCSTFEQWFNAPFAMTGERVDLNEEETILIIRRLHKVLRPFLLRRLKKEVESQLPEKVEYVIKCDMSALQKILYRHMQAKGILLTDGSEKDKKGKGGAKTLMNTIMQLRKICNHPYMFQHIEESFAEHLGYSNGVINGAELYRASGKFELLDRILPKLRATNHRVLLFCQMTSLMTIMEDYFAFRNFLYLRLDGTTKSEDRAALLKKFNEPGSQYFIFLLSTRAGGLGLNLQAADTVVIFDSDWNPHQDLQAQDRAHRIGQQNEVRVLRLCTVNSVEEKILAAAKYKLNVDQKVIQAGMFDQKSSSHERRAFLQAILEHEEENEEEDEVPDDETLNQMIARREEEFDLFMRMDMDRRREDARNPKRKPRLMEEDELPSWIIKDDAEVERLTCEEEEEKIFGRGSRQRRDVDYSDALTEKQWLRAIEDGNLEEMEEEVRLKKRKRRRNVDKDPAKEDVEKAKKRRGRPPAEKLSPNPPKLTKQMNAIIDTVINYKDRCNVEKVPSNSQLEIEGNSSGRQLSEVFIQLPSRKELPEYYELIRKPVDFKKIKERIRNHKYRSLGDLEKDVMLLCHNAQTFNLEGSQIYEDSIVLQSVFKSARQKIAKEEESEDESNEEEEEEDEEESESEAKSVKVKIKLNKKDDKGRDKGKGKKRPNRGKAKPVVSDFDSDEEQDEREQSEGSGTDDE

What is called Emax is the maximal effect, on the per cent scale that the assay sets. `Cc1ncsc1-c1ccc([C@H](C)NC(=O)[C@@H]2C[C@@H](O)CN2C(=O)[C@@H](NC(=O)CCCCCCCCCCCCC(=O)N2CCN(c3ccc(N4CCCC(Oc5cc(-c6ccccc6O)nnc5N)C4)cc3)CC2)C(C)(C)C)cc1` (mixture of isomers) [Example 76, rac-(2S,4R)-4-hydroxy-1-[rac-(2S)-2-[[14-[4-[4-[3-[3-amino-6-(2-hydroxyphenyl)pyridazin-4-yl]oxy-1-piperidyl]phenyl]piperazin-1-yl]-14-oxo-tetradecanoyl]amino]-3,3-dimethyl-butanoyl]-N-[rac-(1S)-1-[4-(4-methylthiazol-5-yl)phenyl]ethyl]pyrrolidine-2-carboxamide]: the Emax stood at 31% and the DC50 is 207 nM.

Take `Cc1ncsc1-c1ccc([C@H](C)NC(=O)[C@@H]2C[C@@H](O)CN2C(=O)[C@@H](NC(=O)CCCCCC(=O)N2CCN(CCOc3ccc(N4CCCC(Oc5cc(-c6ccccc6O)nnc5N)C4)cc3)CC2)C(C)(C)C)cc1` (mixture of isomers) [Example 77, rac-(2S,4R)-4-hydroxy-1-[rac-(2S)-2-[[7-[4-[2-[4-[3-[3-amino-6-(2-hydroxyphenyl)pyridazin-4-yl]oxy-1-piperidyl]phenoxy]ethyl]piperazin-1-yl]-7-oxo-heptanoyl]amino]-3,3-dimethyl-butanoyl]-N-[rac-(1S)-1-[4-(4-methylthiazol-5-yl)phenyl]ethyl]pyrrolidine-2-carboxamide]: the Emax stood at 24% and the DC50 amounted to 244 nM.

Regarding `Cc1ncsc1-c1ccc([C@H](C)NC(=O)[C@@H]2C[C@@H](O)CN2C(=O)[C@@H](NC(=O)CCCCCCCCC(=O)N2CCN(CCOc3ccc(N4CCCC(Oc5cc(-c6ccccc6O)nnc5N)C4)cc3)CC2)C(C)(C)C)cc1` (mixture of isomers) [Example 78, rac-(2S,4R)-4-hydroxy-1-[rac-(2S)-2-[[10-[4-[2-[4-[3-[3-amino-6-(2-hydroxyphenyl)pyridazin-4-yl]oxy-1-piperidyl]phenoxy]ethyl]piperazin-1-yl]-10-oxo-decanoyl]amino]-3,3-dimethyl-butanoyl]-N-[rac-(1S)-1-[4-(4-methylthiazol-5-yl)phenyl]ethyl]pyrrolidine-2-carboxamide], the Emax worked out at 20% and the DC50 was 63 nM.

For `Cc1ncsc1-c1ccc([C@H](C)NC(=O)[C@@H]2C[C@@H](O)CN2C(=O)[C@@H](NC(=O)CCCCCCCCCCC(=O)N2CCN(CCOc3ccc(N4CCCC(Oc5cc(-c6ccccc6O)nnc5N)C4)cc3)CC2)C(C)(C)C)cc1` (mixture of isomers) [Example 79, rac-(2S,4R)-4-hydroxy-1-[rac-(2S)-2-[[12-[4-[2-[4-[3-[3-amino-6-(2-hydroxyphenyl)pyridazin-4-yl]oxy-1-piperidyl]phenoxy]ethyl]piperazin-1-yl]-12-oxo-dodecanoyl]amino]-3,3-dimethyl-butanoyl]-N-[rac-(1S)-1-[4-(4-methylthiazol-5-yl)phenyl]ethyl]pyrrolidine-2-carboxamide], the Emax turned out to be 21% and the DC50 was determined as 78 nM.

Consider `Cc1ncsc1-c1ccc([C@H](C)NC(=O)[C@@H]2C[C@@H](O)CN2C(=O)[C@@H](NC(=O)CCCCCCCCCCCCC(=O)N2CCN(CCOc3ccc(N4CCCC(Oc5cc(-c6ccccc6O)nnc5N)C4)cc3)CC2)C(C)(C)C)cc1` (mixture of isomers) [Example 80, rac-(2S,4R)-4-hydroxy-1-[rac-(2S)-2-[[14-[4-[2-[4-[3-[3-amino-6-(2-hydroxyphenyl)pyridazin-4-yl]oxy-1-piperidyl]phenoxy]ethyl]piperazin-1-yl]-14-oxo-tetradecanoyl]amino]-3,3-dimethyl-butanoyl]-N-[rac-(1S)-1-[4-(4-methylthiazol-5-yl)phenyl]ethyl]pyrrolidine-2-carboxamide], for which the Emax amounted to 25% and the DC50 is 383 nM.

As for `Cc1ncsc1-c1ccc([C@H](C)NC(=O)[C@@H]2C[C@@H](O)CN2C(=O)[C@@H](NC(=O)CCCCCCCCCCCCC(=O)N2CCN(CCOc3cccc(N4CCCC(Oc5cc(-c6ccccc6O)nnc5N)C4)c3)CC2)C(C)(C)C)cc1` (mixture of isomers) [Example 81, rac-(2S,4R)-4-hydroxy-1-[rac-(2S)-2-[[14-[4-[2-[3-[3-[3-amino-6-(2-hydroxyphenyl)pyridazin-4-yl]oxy-1-piperidyl]phenoxy]ethyl]piperazin-1-yl]-14-oxo-tetradecanoyl]amino]-3,3-dimethyl-butanoyl]-N-[rac-(1S)-1-[4-(4-methylthiazol-5-yl)phenyl]ethyl]pyrrolidine-2-carboxamide], the Emax turned out to be 34% and the DC50 is 504 nM.

Turning to `Cc1ncsc1-c1ccc([C@H](C)NC(=O)[C@@H]2C[C@@H](O)CN2C(=O)[C@@H](NC(=O)CCCCCCCCC(=O)N2CCN(Cc3cccc(C(C)Oc4cc(-c5ccccc5O)nnc4N)c3)CC2)C(C)(C)C)cc1` (mixture of isomers) [Example 82, rac-(2S,4R)-4-hydroxy-1-[rac-(2S)-2-[[10-[4-[[3-[l-[3-amino-6-(2-hydroxyphenyl)pyridazin-4-yl]oxyethyl]phenyl]methyl]piperazin-1-yl]-10-oxo-decanoyl]amino]-3,3-dimethyl-butanoyl]-N-[rac-(1S)-1-[4-(4-methylthiazol-5-yl)phenyl]ethyl]pyrrolidine-2-carboxamide], the Emax came out at 62% and the DC50 was 586 nM.

`Cc1ncsc1-c1ccc([C@H](C)NC(=O)[C@@H]2C[C@@H](O)CN2C(=O)[C@@H](NC(=O)CCCCCCCCCNC(=O)C(c2ccccc2)n2cc(-c3cc(-c4ccccc4O)nnc3N)cn2)C(C)(C)C)cc1` (mixture of isomers) [Example 88, rac-(2S,4R)-4-hydroxy-1-[rac-(2S)-2-[10-[[2-[4-[3-amino-6-(2-hydroxyphenyl)pyridazin-4-yl]pyrazol-1-yl]-2-phenyl-acetyl]amino]decanoylamino]-3,3-dimethyl-butanoyl]-N-[rac-(1S)-1-[4-(4-methylthiazol-5-yl)phenyl]ethyl]pyrrolidine-2-carboxamide]: the Emax was 29% and the DC50 stood at 423 nM.

With `Cc1ncsc1-c1ccc([C@H](C)NC(=O)[C@@H]2C[C@@H](O)CN2C(=O)[C@@H](NC(=O)CCCCCC(=O)N2CCN(c3cccc(N4CCCC(Oc5cc(-c6ccccc6O)nnc5N)C4)c3)CC2)C(C)(C)C)cc1` (mixture of isomers) [Example 90, rac-(2S,4R)-4-hydroxy-1-[rac-(2S)-2-[[7-[4-[3-[3-[3-amino-6-(2-hydroxyphenyl)pyridazin-4-yl]oxy-1-piperidyl]phenyl]piperazin-1-yl]-7-oxo-heptanoyl]amino]-3,3-dimethyl-butanoyl]-N-[rac-(1S)-1-[4-(4-methylthiazol-5-yl)phenyl]ethyl]pyrrolidine-2-carboxamide], the Emax came out at 34% and the DC50 was 1320 nM.

On to `Cc1ncsc1-c1ccc([C@H](C)NC(=O)[C@@H]2C[C@@H](O)CN2C(=O)[C@@H](NC(=O)CCCCCCCCC(=O)N2CCN(c3cccc(N4CCCC(Oc5cc(-c6ccccc6O)nnc5N)C4)c3)CC2)C(C)(C)C)cc1` (mixture of isomers) [Example 91, rac-(2S,4R)-4-hydroxy-1-[rac-(2S)-2-[[10-[4-[3-[3-[3-amino-6-(2-hydroxyphenyl)pyridazin-4-yl]oxy-1-piperidyl]phenyl]piperazin-1-yl]-10-oxo-decanoyl]amino]-3,3-dimethyl-butanoyl]-N-[rac-(1S)-1-[4-(4-methylthiazol-5-yl)phenyl]ethyl]pyrrolidine-2-carboxamide], for which the Emax was 44% and the DC50 was found to be 600 nM.

Turning to `Cc1ncsc1-c1ccc([C@H](C)NC(=O)[C@@H]2C[C@@H](O)CN2C(=O)[C@@H](NC(=O)CCCCCCCCCCC(=O)N2CCN(c3cccc(N4CCCC(Oc5cc(-c6ccccc6O)nnc5N)C4)c3)CC2)C(C)(C)C)cc1` (mixture of isomers) [Example 92, rac-(2S,4R)-4-hydroxy-1-[rac-(2S)-2-[[12-[4-[3-[3-[3-amino-6-(2-hydroxyphenyl)pyridazin-4-yl]oxy-1-piperidyl]phenyl]piperazin-1-yl]-12-oxo-dodecanoyl]amino]-3,3-dimethyl-butanoyl]-N-[rac-(1S)-1-[4-(4-methylthiazol-5-yl)phenyl]ethyl]pyrrolidine-2-carboxamide], the Emax came to 45% and the DC50 was determined as 560 nM.

Turning to `Cc1ncsc1-c1ccc([C@H](C)NC(=O)[C@@H]2C[C@@H](O)CN2C(=O)[C@@H](NC(=O)CCCCCCCCCCCCC(=O)N2CCN(c3cccc(N4CCCC(Oc5cc(-c6ccccc6O)nnc5N)C4)c3)CC2)C(C)(C)C)cc1` (mixture of isomers) [Example 93, rac-(2S,4R)-4-hydroxy-1-[rac-(2S)-2-[[14-[4-[3-[3-[3-amino-6-(2-hydroxyphenyl)pyridazin-4-yl]oxy-1-piperidyl]phenyl]piperazin-1-yl]-14-oxo-tetradecanoyl]amino]-3,3-dimethyl-butanoyl]-N-[rac-(1S)-1-[4-(4-methylthiazol-5-yl)phenyl]ethyl]pyrrolidine-2-carboxamide], the Emax turned out to be 55% and the DC50 was found to be 579 nM.

For `Cc1ncsc1-c1ccc(CNC(=O)[C@@H]2C[C@@H](O)CN2C(=O)[C@@H](NC(=O)CCCCCCCCC(=O)N2CCC(CNC(=O)C3CN(c4cc(-c5ccccc5O)nnc4N)CCN3c3ccccc3)CC2)C(C)(C)C)cc1` (mixture of isomers) [Example 97, 4-[3-amino-6-(2-hydroxyphenyl)pyridazin-4-yl]-N-[[1-[10-oxo-10-[[rac-(1S)-2,2-dimethyl-1-[rac-(2S,4R)-4-hydroxy-2-[[4-(4-methylthiazol-5-yl)phenyl]methylcarbamoyl]pyrrolidine-1-carbonyl]propyl]amino]decanoyl]-4-piperidyl]methyl]-1-phenyl-piperazine-2-carboxamide], the Emax turned out to be 40% and the DC50 was found to be 1150 nM.

Consider `Cc1ncsc1-c1ccc(CNC(=O)[C@@H]2C[C@@H](O)CN2C(=O)[C@@H](NC(=O)CCCCCCCCC(=O)N(C)CCNC(=O)C2CN(c3cc(-c4ccccc4O)nnc3N)CCN2c2ccccc2)C(C)(C)C)cc1` (mixture of isomers) [Example 98, N′-[2-[[4-[3-amino-6-(2-hydroxyphenyl)pyridazin-4-yl]-1-phenyl-piperazine-2-carbonyl]amino]ethyl]-N′-methyl-N-[rac-(1S)-2,2-dimethyl-1-[rac-(2S,4R)-4-hydroxy-2-[[4-(4-methylthiazol-5-yl)phenyl]methylcarbamoyl]pyrrolidine-1-carbonyl]propyl]decanediamide], for which the Emax is 28% and the DC50 is 1650 nM.
